Test results published in ChEMBL document CHEMBL1201862, “PubChem BioAssay data set” (2004).
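Cultured in 96-well plates, cells were exposed to test compound for 48 hours across five concentrations. The concentration for 50% growth inhibition is given as GI50.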 Activity calls are given as the source filed them. Rule as the data show it: active = GI50 up to about 1.1 µM and inactive = higher.

Columns and labels:
Test in all cases: growth of human tumour cells (NCI), 48 h
MDA-MB-435 = test system: MDA-MB-435
SN12C = test system: SN12C
UACC-62 = test system: UACC-62
UACC-257 = test system: UACC-257
RXF 393 = test system: RXF 393
MOLT-4 = test system: MOLT-4
HCC 2998 = test system: HCC 2998
HOP-92 = test system: HOP-92
Malme-3M = test system: Malme-3M
NCI-H460 = test system: NCI-H460
OVCAR-4 = test system: OVCAR-4
IGROV-1 = test system: IGROV-1
UO-31 = test system: UO-31
HCT-116 = test system: HCT-116
HL-60 = test system: HL-60
MDA-MB-231 = test system: MDA-MB-231
HT-29 = test system: HT-29
OVCAR-5 = test system: OVCAR-5
A498 = test system: A498

SMILES | GI50 (MDA-MB-435) | GI50 (SN12C) | GI50 (UACC-62) | GI50 (UACC-257) | GI50 (RXF 393) | GI50 (MOLT-4) | GI50 (HCC 2998) | GI50 (HOP-92) | GI50 (Malme-3M) | GI50 (NCI-H460) | GI50 (OVCAR-4) | GI50 (IGROV-1) | GI50 (UO-31) | GI50 (HCT-116) | GI50 (HL-60) | GI50 (MDA-MB-231) | GI50 (HT-29) | GI50 (OVCAR-5) | GI50 (A498)
O=C(O)c1ccc(C2=Nc3cccc4cccc(c34)N2)cc1 | > 100 µM (inactive) | > 100 µM (inactive) | > 100 µM (inactive) | > 100 µM (inactive) | > 100 µM (inactive) | 25.4 µM (inactive) | > 100 µM (inactive) | 45.6 µM (inactive) | > 100 µM (inactive) | > 100 µM (inactive) | > 100 µM (inactive) | > 100 µM (inactive) | > 100 µM (inactive) | > 100 µM (inactive) | 19.6 µM (inactive) | > 100 µM (inactive) | > 100 µM (inactive) | – | –
C/C(=N/O)c1cccc(Nc2nc3ccc(Cl)cc3c3[nH]c4ccccc4c23)c1 | 1.81 µM (inactive) | 2.51 µM (inactive) | 1.83 µM (inactive) | 3.53 µM (inactive) | 1.67 µM (inactive) | 0.242 µM (active) | – | – | – | 1.14 µM (inactive) | 1.9 µM (inactive) | 1.5 µM (inactive) | 2.33 µM (inactive) | 0.205 µM (active) | 3.07 µM (inactive) | 2.59 µM (inactive) | 1.23 µM (inactive) | 2.07 µM (inactive) | –
Clc1ccc(OCC2NC3CCC2CC3)cn1 (centres undefined) | 20.4 µM (inactive) | 28.4 µM (inactive) | 17.7 µM (inactive) | 17.8 µM (inactive) | 36.9 µM (inactive) | 17.2 µM (inactive) | 16.6 µM (inactive) | 35.4 µM (inactive) | 19.5 µM (inactive) | 21.3 µM (inactive) | 37.9 µM (inactive) | 38.2 µM (inactive) | 2.45 µM (inactive) | 20.7 µM (inactive) | 24.4 µM (inactive) | 19.1 µM (inactive) | 17.9 µM (inactive) | 52 µM (inactive) | –
C=CCNC(=S)N/C=C(/C(C)=O)C(=O)Nc1ccccc1C | > 100 µM (inactive) | > 100 µM (inactive) | > 100 µM (inactive) | > 100 µM (inactive) | > 100 µM (inactive) | > 100 µM (inactive) | > 100 µM (inactive) | – | – | > 100 µM (inactive) | > 100 µM (inactive) | > 100 µM (inactive) | > 100 µM (inactive) | > 100 µM (inactive) | > 100 µM (inactive) | > 100 µM (inactive) | > 100 µM (inactive) | > 100 µM (inactive) | –
COc1ccc(-c2nc(-c3cc4c(ccc5ccccc54)oc3=O)cs2)cc1 | > 100 µM (inactive) | > 100 µM (inactive) | > 100 µM (inactive) | > 100 µM (inactive) | > 100 µM (inactive) | > 100 µM (inactive) | > 100 µM (inactive) | > 100 µM (inactive) | – | > 100 µM (inactive) | 43.7 µM (inactive) | > 100 µM (inactive) | > 100 µM (inactive) | 59.8 µM (inactive) | > 100 µM (inactive) | 73.6 µM (inactive) | > 100 µM (inactive) | > 100 µM (inactive) | –
CSc1ncnc2c1cnn2Cc1cnnn1COCC(O)CO (centres undefined) | > 100 µM (inactive) | > 100 µM (inactive) | > 100 µM (inactive) | > 100 µM (inactive) | – | > 100 µM (inactive) | > 100 µM (inactive) | – | – | – | > 100 µM (inactive) | > 100 µM (inactive) | > 100 µM (inactive) | > 100 µM (inactive) | > 100 µM (inactive) | > 100 µM (inactive) | > 100 µM (inactive) | > 100 µM (inactive) | > 100 µM (inactive)
CSc1cc(Cl)c(C)cc1S(=O)(=O)NC(=O)NNc1cnc2ccccc2n1 | > 100 µM (inactive) | > 100 µM (inactive) | – | – | > 100 µM (inactive) | 17.5 µM (inactive) | > 100 µM (inactive) | – | > 100 µM (inactive) | > 100 µM (inactive) | > 100 µM (inactive) | > 100 µM (inactive) | – | > 100 µM (inactive) | – | > 100 µM (inactive) | > 100 µM (inactive) | > 100 µM (inactive) | > 100 µM (inactive)
CS(=O)(=O)c1nc(-c2cc3c(c(S(C)(=O)=O)n2)CCCC3)cc2c1CCCCC2 | > 100 µM (inactive) | > 100 µM (inactive) | > 100 µM (inactive) | > 100 µM (inactive) | 48.6 µM (inactive) | – | – | – | – | – | > 100 µM (inactive) | 11.2 µM (inactive) | 0.0206 µM (active) | > 100 µM (inactive) | > 100 µM (inactive) | 65.5 µM (inactive) | > 100 µM (inactive) | > 100 µM (inactive) | –
COC(=O)C1(C(=O)OC)C/C(C)=C(/C)SCCCS1 | > 100 µM (inactive) | 86.3 µM (inactive) | > 100 µM (inactive) | 71.9 µM (inactive) | > 100 µM (inactive) | 44.4 µM (inactive) | > 100 µM (inactive) | 49.5 µM (inactive) | > 100 µM (inactive) | > 100 µM (inactive) | > 100 µM (inactive) | > 100 µM (inactive) | > 100 µM (inactive) | > 100 µM (inactive) | – | > 100 µM (inactive) | > 100 µM (inactive) | > 100 µM (inactive) | –
O=C1Oc2ccccc2C(=O)/C1=C/NC(=S)NCCc1ccccc1 | 48.6 µM (inactive) | 40 µM (inactive) | 26.9 µM (inactive) | 62.1 µM (inactive) | 39.8 µM (inactive) | 57.1 µM (inactive) | 43.2 µM (inactive) | 23.7 µM (inactive) | – | 23.8 µM (inactive) | 34.9 µM (inactive) | 27 µM (inactive) | 17.1 µM (inactive) | 33.3 µM (inactive) | 1.85 µM (inactive) | 37.8 µM (inactive) | 68.1 µM (inactive) | 68.4 µM (inactive) | –
COC(=O)c1c2c(cc3c1CCC3)CCC2 | 70.8 µM (inactive) | > 100 µM (inactive) | 51.1 µM (inactive) | 48 µM (inactive) | – | 21.6 µM (inactive) | 59.4 µM (inactive) | – | 48.2 µM (inactive) | 94.6 µM (inactive) | 82.2 µM (inactive) | > 100 µM (inactive) | 72.8 µM (inactive) | 39.6 µM (inactive) | 15.5 µM (inactive) | 37.7 µM (inactive) | 26.3 µM (inactive) | > 100 µM (inactive) | 28.6 µM (inactive)
CCOC(=O)c1cnc(-n2[nH]c(C)c(CCO)c2=O)[nH]c1=O | > 100 µM (inactive) | > 100 µM (inactive) | > 100 µM (inactive) | > 100 µM (inactive) | > 100 µM (inactive) | > 100 µM (inactive) | > 100 µM (inactive) | > 100 µM (inactive) | > 100 µM (inactive) | > 100 µM (inactive) | > 100 µM (inactive) | > 100 µM (inactive) | > 100 µM (inactive) | > 100 µM (inactive) | > 100 µM (inactive) | > 100 µM (inactive) | > 100 µM (inactive) | > 100 µM (inactive) | –
